US7449190B2 (priority 2002, dated 2008)

Legend:
[1] = test system: interaction of NP with VP35; type: biochemical, Ebola virus
NP = type: cell-based, Ebola virus
HIV gp160 = type: cell-based

`CCCCCCCCO[C@H]1O[C@H](COC(C)=O)[C@@H](OC(C)=O)[C@H](OC(C)=O)[C@@H]1OC(C)=O` [AcManα1-OC8, acetylated Manα1-O-octyl] was tested. Which “inhibition of the interaction of NP with VP35” value [1] did it give?
The value was “not seen”.

Which “effect in the in vitro transcription/translation system (NP synthesis or association of NP with VP35 and VP24)” value [1] does the source give for `C[C@H]1CCC/C=C/[C@@H]2C[C@H](O)C[C@H]2[C@H](O)/C=C/C(=O)O1` [Brefeldin A] here?
Its value is “without any effect”.

How did the “dose dependence of inhibition of NP/VP35 interaction” value [1] turn out when `CCCCCCCCO[C@H]1O[C@H](CO)[C@@H](O)[C@H](O)[C@@H]1O` [Manα1-OC8, mannose α1-O-octyl] was run?
The value was “dose-dependent”.

And the “inhibition of NP/VP35 interaction when added after translation” value [1]?
The value was “did not inhibit”.

And the “inhibition of the interaction of NP with VP35” value [1]?
The value was “substantially reduced”.

For `CC(=O)N[C@H]1[C@@H](OCc2ccccc2)O[C@H](CO)[C@H](O)[C@@H]1O[C@@H]1O[C@H](CO)[C@H](O)[C@H](O)[C@H]1O` [benzyl 2-acetamido-2-deoxy-3-O-b-D-galactopyranosyl-a-D-galactopyranoside], which “effect in the in vitro transcription/translation system (NP synthesis or association of NP with VP35 and VP24)” value [1] is on record?
The value was “without any effect”.

With `CC(=O)N[C@H]1[C@@H](OCc2ccccc2)O[C@H](CO)[C@H](O)[C@@H]1O` [benzyl 2-acetamido-2-deoxy-a-D-galactopyranoside] as the molecule, how does the “effect in the in vitro transcription/translation system (NP synthesis or association of NP with VP35 and VP24)” value [1] read?
The value was “without any effect”.

With `CC(=O)N[C@H]1[C@H](OCc2ccccc2)O[C@H](CO)[C@@H](O)[C@@H]1O` [benzyl 2-acetamido-2-deoxy-b-D-glucopyranoside] as the molecule, how does the “effect in the in vitro transcription/translation system (NP synthesis or association of NP with VP35 and VP24)” value [1] read?
Its value is “without any effect”.

`O=C(N[C@H]1[C@@H](OCc2ccccc2)O[C@H](CO)[C@@H](O)[C@@H]1O)OCc1ccccc1` [benzyl Z-a-D-glucosaminide] was tested. Which “effect in the in vitro transcription/translation system (NP synthesis or association of NP with VP35 and VP24)” value [1] did it give?
The value was “without any effect”.

How did the “effect in the in vitro transcription/translation system (NP synthesis or association of NP with VP35 and VP24)” value [1] turn out when `O=C(N[C@H]1[C@H](OCc2ccccc2)O[C@H](CO)[C@@H](O)[C@@H]1O)OCc1ccccc1` [benzyl Z-b-D-glucosaminide] was run?
Its value is “without any effect”.

Which “effect on NP migration (glycosylation) in NP-transfected 293 cells” value (NP) does the source give for `OC[C@H]1NC[C@@H](O)[C@@H](O)[C@@H]1O` [deoxymannojirimycin] here?
Its value is “No effect”.

How did the “effect in the in vitro transcription/translation system (NP synthesis or association of NP with VP35 and VP24)” value [1] turn out when `CC(=O)N[C@H]1[C@@H](Oc2ccccc2)O[C@H](CO)[C@H](O)[C@@H]1O` [phenyl N-acetyl-a-D-galactosaminide] was run?
The value was “without any effect”.

Which results are given for tunicamycin?
expression of HIV gp160 (HIV gp160): abolished; effect on NP migration (glycosylation) in NP-transfected 293 cells (NP): No effect; synthesis of NP in NP-transfected 293 cells (NP): unaffected
